# Test results taken from patent US11213499B1, “Use of 3,3′-diselenodipropionic acid (DSePA) as an anticancer agent” (Secretary, Department of Atomic Energy, priority 2020, dated 2022).
# Read-outs that look alike come from different tables or passages of the source.
# Key:
# [1] = rat; cited from earlier work
# [2] = mice; cited from earlier work
# [3] = tested on: WI-38 (Human normal lung fibroblast); assay: SRB/MTT assay, normal WI-38 cells; type: cell-based
# Method: The anticancer effect of DSePA was evaluated using a panel of twenty-five human cancer cell lines of different tissue origins. Cells were treated with the increasing concentrations (0.1-100 μM) of DSePA for 48 h and viability was monitored by (Sulforhodamine B) SRB assay or MTT assay.
# Cell culture and DSePA synthesis—DSePA was synthesized and characterized as described in our previous reports. Cell lines were cultured in growth medium (DMEM/RPMI) supplemented with 10% FBS, 100 U/ml penicillin and 100 μg/ml streptomycin at 37° C. in a humidified 5% CO2 environment. The stock solution of DSePA was prepared fresh in cell culture medium and diluted with the same to achieve the desired concentrations.
# SRB/MTT Assay—To evaluate the anti-proliferative effect of DSePA, Cells (˜5×10^3) suspended in 100 μl of complete culture medium were seeded in each well of 96 well plates. The cells were allowed to attach and grow for 24 h, treated with desired concentrations of DSePA dissolved in culture medium for 48 h and then processed for SRB/MTT assay as described in literature. The percentage (%) cytotoxicity was calculated from the decrease in absorbance as compared to that of control group.
smiles,measurement,setting,value
"O=C(O)CC[Se][Se]CCC(=O)O [DSePA, 3,3′-diselenodipropionic acid]",estimated median oral Lethal dose (LD50) cut-off,[1],25 mg/kg
same,estimated median oral Lethal dose (LD50) cut-off,[2],200 mg/kg
same,GI50,"[3]; Homo sapiens, WI-38 normal cells, 48 hours treatment, SRB/MTT assay, read-out: GI50 (Concentration of drug causing 50% inhibition of cell growth)",> 100 µM
same,toxicity in normal cell types,"[3]; WI-38, 0.1-100 μM, 48 h",did not show toxicity
